The target in one assay is T1, human 5HT transporter (Homo sapiens, UniProt P31645).
T1 construct: host or cells: HEK cells
As to the kind of experiment: Binding experiment for 5-HT transporter, [3H]Paroxetine. Particulars: 5HT transporter-transfected HEK cells, [3H]Paroxetine binding; read-out: pIC50 5HT reuptake inhibition (converted). The procedure: (§1) The interaction of the compounds of Formula (I) with dopamine-receptors, h5HT-transporter and h5HT1A receptor was assessed in in vitro radioligand binding experiments. In general, a low concentration of a radioligand with a high binding affinity for a particular receptor or transporter is incubated with a sample of a tissue preparation enriched in a particular receptor or transporter or with a preparation of cells expressing cloned human receptors in a buffered medium. During the incubation, the radioligand binds to the receptor or transporter. When equilibrium of binding is reached, the receptor bound radioactivity is separated from the non-bound radioactivity, and the receptor- or transporter-bound activity is counted The interaction of the test compounds with the receptor is assessed in competition binding experiments. Various concentrations of the test compound are added to the incubation mixture containing the receptor- or transporter preparation and the radioligand. The test compound in proportion to its binding affinity and its concentration inhibits binding of the radioligand.
Frozen human 5HT transporter-transfected HEK cells (Perkin Elmer, Brussels) were thawed and briefly homogenised using an Ultra-Turrax T25 homogeniser prior to dilution to an appropriate protein concentration optimised for specific and non-specific binding. [^3H]Paroxetine (NEN, specific activity 20 Ci/mmol) was diluted in Tris-HCl assay buffer containing NaCl and KCl (50 mM 120 mM and 5 mM, respectively; pH 7.4) at a concentration of 5 nmol/L. Prepared radioligand (25 μl) was then incubated (60 min, 25° C.) with membrane preparations (200 μl) and with 25 μl of either 10% DMSO control, Imipramine (10^−6 mol/L final concentration), or compound of interest Membrane-bound activity was detected by filtration through a Packard Filtermate harvester onto Unifilterplates pre-soaked in 0.1% PEI, washing with ice-cold assay buffer (3×4 ml). Filters were dried prior to addition of scintillation fluid and then counting in a Topcount scintillation counter. % Specific bound and competition binding curves were calculated using S-Plus software (Insightful).

In assay [1] the target is T2, Human Dopamine D2L receptor (Homo sapiens, UniProt P14416).
T2 construct: expressed in transfected cells; host or cells: CHO cells
Description: Radioligand binding experiment for dopamine D2 receptor (hD2), [3H]Spiperone. The following applies: membranes of D2L receptor-transfected CHO cells, read-out: pIC50 D2 (converted). The procedure:
as §1
Human Dopamine D2L receptor-transfected CHO cells were collected by scraping into ice-cold Tris-HCl buffer ([…], pH 7.4). The suspension was centrifuged (23 500×g, 10 min, 4° C.) and pellets stored at −70° C. until require. They were then thawed and briefly homogenised using an Ultra-Turrax T25 homogeniser prior to dilution to an appropriate protein concentration optimised for specific and non-specific binding. [^3H]Spiperone (NEN, specific activity˜70 Ci/mmol) was diluted in Tris-HCl assay buffer containing NaCl, CaCl2, MgCl2, KCI (50, 120, 2, 1, and 5 mM respectively, adjusted to pH 7.7 with HCl) at a concentration of 2 nmol/L. Prepared radioligand (50 μl) was then incubated (30 min, 37° C.) with membrane preparations pre-diluted to an appropriate protein concentration (400 μl), and with 50 μl of either the 10% DMSO control, Butaclamol (10^−6 mol/L final concentration), or compound of interest. Membrane-bound activity was detected by filtration through a Packard Filtermate harvester onto Unifilterplates, washing with ice-old Tris-HCl buffer (50 mM; pH8.0; 3×4 ml). Filters were allowed to dry before adding scintillation fluid and counting in a Topcount scintillation counter. % Specific bound and competition binding curves were calculated using S-Plus software (Insightful).

The target of the next assay is T3, Human 5HT1A receptor (Homo sapiens, UniProt P08908).
T3 construct: expressed in transfected cells; host or cells: L929 cells (stably transfected)
T3 sequence (P08908 1-422): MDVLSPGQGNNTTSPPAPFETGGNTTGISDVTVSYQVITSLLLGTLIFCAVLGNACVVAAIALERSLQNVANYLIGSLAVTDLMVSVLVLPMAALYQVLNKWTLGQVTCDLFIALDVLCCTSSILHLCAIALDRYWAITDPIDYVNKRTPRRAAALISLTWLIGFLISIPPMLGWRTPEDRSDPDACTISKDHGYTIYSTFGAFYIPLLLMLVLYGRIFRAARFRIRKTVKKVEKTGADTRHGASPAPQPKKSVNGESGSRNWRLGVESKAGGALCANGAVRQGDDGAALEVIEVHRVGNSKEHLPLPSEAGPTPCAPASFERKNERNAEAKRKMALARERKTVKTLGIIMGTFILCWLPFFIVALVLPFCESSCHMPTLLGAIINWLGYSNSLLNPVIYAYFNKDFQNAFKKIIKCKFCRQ
Description: Binding experiment for 5-HT1A receptor, [3H]8OHDPAT. The following applies: membranes of 5HT1A receptor-transfected L929 cells, read-out: pIC50 5HT1A (converted). The procedure:
as §1
Human 5HT1A receptor-transfected L929 cells were collected by scraping into ice-cold Tris-HCl buffer (50 mM, pH 7.4). The suspension was centrifuged (23 500×g, 10 min, 4° C.) and pellets stored at −70° C. until required. They were then thawed and briefly homogenised using an Ultra-Turrax T25 homogeniser prior to dilution to an appropriate protein concentration optimised for specific and non-specific binding. [^3H]8OHDPAT (NEN, specific activity 127 Ci/mmol) was diluted in Tris-HCl assay buffer containing CaCl2 (50 mM and 4 mM, respectively; pH 7.7) at a concentration of 5 nmol/L. Prepared radioligand (50 μl) was then incubated (30 min, 37° C.) with membrane preparations from L929 cells stably-transfected with the h5HT1A gene construct (400 μl) and with 50 μl of either the 10% DMSO control, spiroxatrine (10^−6 mol/L final concentration), or compound of interest. Membrane-bound activity was detected by filtration through a Packard Filtermate harvester onto Unifaltemplates, washing with ice-cold Tris-HCI buffer (3×4 ml), followed by drying. Scintillation fluid was added and membranes were counted in a Topcount scintillation counter. % Specific bound and competition binding curves were calculated using S-Plus software (Insightful).

For assay [2], the target named is T4, Human Dopamine D3 receptor (Homo sapiens, UniProt P35462).
T4 construct: expressed in transfected cells; host or cells: CHO cells
Description: Radioligand binding experiment for dopamine D3 receptor (hD3), [125I]Iodosulpride. Particulars: membranes of D3 receptor-transfected CHO cells, read-out: pIC50 D3 (converted). The procedure:
as §1
Human Dopamine D3 receptor-transfected CHO cells were collected by scraping into ice-cold Tris-HCl buffer (50 mM, pH 7.4). The suspension was centrifuged (23 500×g, 10 min, 4° C.) and pellets stored at −70° C. until required. They were then thawed and briefly homogenised using an Ultra-Turrax T25 homogeniser prior to dilution to an appropriate protein concentration optimised for specific and non-specific binding. [^125]Iodosulpride (Amersham, specific activity 2000 Ci/mmol) was diluted in Tris-HCl assay buffer containing NaCl, CaCl2, MgCl2, KCl and BSA (50, 120, 2, 1, 5 mM, 0.1% respectively, adjusted to pH 7.7 with HCl) at a concentration of 2 nmol/L. Prepared radioligand (20 μl) was incubated (60 min, RT) and with 20 μl of either the 10% DMSO control, Risperidone (10^−6 mol/L final concentration), or compound of interest, then with membrane preparations (80 μl). Overnight incubation followed after addition of WGA-coated PVT SPA beads (250 μl; Amersham) and membrane-bound counts measured in a Wallac Microbeta. % Specific bound and competition binding curves were calculated using S-Plus software (Insightful).

Where only a bound is given, the exact number is not on record here.

The values that follow come from patent US20070066608A1, “Novel indole derivatives with an improved antipsychotic activity” (priority 2003, published 2007).

T1 sequence (P31645 whole entry): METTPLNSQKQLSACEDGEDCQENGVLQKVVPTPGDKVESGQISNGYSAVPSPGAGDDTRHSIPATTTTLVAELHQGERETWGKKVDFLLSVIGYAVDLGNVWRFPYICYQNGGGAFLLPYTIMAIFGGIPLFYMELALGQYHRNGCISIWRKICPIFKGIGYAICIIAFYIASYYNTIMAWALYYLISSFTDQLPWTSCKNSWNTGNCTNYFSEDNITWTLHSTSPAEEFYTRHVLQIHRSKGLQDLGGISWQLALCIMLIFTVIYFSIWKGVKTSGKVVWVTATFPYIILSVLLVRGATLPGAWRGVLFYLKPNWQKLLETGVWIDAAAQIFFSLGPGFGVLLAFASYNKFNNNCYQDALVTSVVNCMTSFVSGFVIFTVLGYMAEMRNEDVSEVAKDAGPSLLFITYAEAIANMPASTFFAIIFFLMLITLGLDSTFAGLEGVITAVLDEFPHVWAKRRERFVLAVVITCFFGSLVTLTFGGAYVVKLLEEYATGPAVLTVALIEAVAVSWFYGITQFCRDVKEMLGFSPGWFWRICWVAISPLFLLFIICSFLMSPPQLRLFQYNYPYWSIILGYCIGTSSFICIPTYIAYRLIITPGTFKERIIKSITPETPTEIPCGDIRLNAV
T4 sequence (P35462 whole entry): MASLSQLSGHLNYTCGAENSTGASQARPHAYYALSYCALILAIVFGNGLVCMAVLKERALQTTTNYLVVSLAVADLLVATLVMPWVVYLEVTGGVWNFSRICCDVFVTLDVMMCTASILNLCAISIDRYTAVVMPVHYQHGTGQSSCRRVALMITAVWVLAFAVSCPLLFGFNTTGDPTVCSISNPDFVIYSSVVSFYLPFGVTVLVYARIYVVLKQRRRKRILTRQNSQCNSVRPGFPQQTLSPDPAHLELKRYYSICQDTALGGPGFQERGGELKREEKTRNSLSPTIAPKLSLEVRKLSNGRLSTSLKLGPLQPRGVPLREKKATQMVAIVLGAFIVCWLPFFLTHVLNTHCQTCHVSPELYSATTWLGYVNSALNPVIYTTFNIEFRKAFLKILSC
T2 sequence (P14416 whole entry): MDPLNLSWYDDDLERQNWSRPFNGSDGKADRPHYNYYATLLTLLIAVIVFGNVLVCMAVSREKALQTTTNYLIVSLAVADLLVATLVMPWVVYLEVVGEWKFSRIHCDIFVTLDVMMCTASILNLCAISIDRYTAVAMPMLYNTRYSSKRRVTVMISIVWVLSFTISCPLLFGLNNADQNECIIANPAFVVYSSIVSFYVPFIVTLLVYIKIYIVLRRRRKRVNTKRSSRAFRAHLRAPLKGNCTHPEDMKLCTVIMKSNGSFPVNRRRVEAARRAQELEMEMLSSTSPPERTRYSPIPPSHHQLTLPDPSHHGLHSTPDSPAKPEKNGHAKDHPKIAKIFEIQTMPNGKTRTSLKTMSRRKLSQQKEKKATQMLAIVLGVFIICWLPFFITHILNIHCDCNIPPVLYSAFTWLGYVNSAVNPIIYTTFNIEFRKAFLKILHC

For `O=[N+]([O-])c1ccc2[nH]cc(C3=CCN(CC4COc5ccncc5O4)CC3)c2c1` (racemic) [Compound 14], the IC50 at human 5HT transporter is 100 nM; in assay [1], 100 nM; at Human 5HT1A receptor, 200 nM.

Turning to `N#Cc1ccc2[nH]cc(C3CCN(CC4COc5ccncc5O4)CC3)c2c1` (racemic) [Compound 20], the IC50 on human 5HT transporter was 39.8 nM; in assay [1], 63.1 nM.

Regarding `O=[N+]([O-])c1ccc2[nH]cc(C3=CCN(CC4COc5ccncc5O4)CC3)c2c1` (single isomer, unassigned) [Compound 15], the IC50 at human 5HT transporter was 10 nM; in assay [1] it was 200 nM.

In the case of `O=[N+]([O-])c1ccc2[nH]cc(C3=CCN(CC4COc5ccncc5O4)CC3)c2c1` (single isomer, unassigned) [Compound 16], the figures for the IC50 (at human 5HT transporter; in assay [1]) were 251 nM and 316 nM, respectively.

As for `N#Cc1ccc2[nH]cc(C3CCN(CC4COc5ccncc5O4)CC3)c2c1` (single isomer, unassigned) [Compound 21], the figures for the IC50 (on human 5HT transporter; in assay [1]; on Human 5HT1A receptor) were 20 nM, 79.4 nM and 31.6 nM, respectively.

Consider `N#Cc1ccc2[nH]cc(C3CCN(CC4COc5ccncc5O4)CC3)c2c1` (single isomer, unassigned) [Compound 22], for which the IC50 was 501 nM on human 5HT transporter, 794 nM in assay [1] and 10 nM at Human 5HT1A receptor.

Take `CN1CC(CN2CC=C(c3c[nH]c4ccc(F)cc34)CC2)Oc2ncccc21` (stereo not drawn) [Compound 1]: the IC50 was 15.8 nM at human 5HT transporter, 200 nM in assay [1], 79.4 nM in assay [2] and 12.6 nM at Human 5HT1A receptor.

On to `CN1CC(CN2CCC(c3c[nH]c4ccc(F)cc34)CC2)Oc2ncccc21` (stereo not drawn) [Compound 2], for which the IC50 at human 5HT transporter was 316 nM; in assay [1] it was 398 nM; in assay [2] it was 100 nM; on Human 5HT1A receptor, 15.8 nM.

Consider `CN1CC(CNCCCc2c[nH]c3ccc(F)cc23)Oc2ncccc21` (stereo not drawn) [Compound 3], for which the IC50 on human 5HT transporter was 200 nM; in assay [1] it was more than 1000 nM; in assay [2] it was 398 nM; at Human 5HT1A receptor it was 3.16 nM.

Turning to `Fc1ccc2[nH]cc(C3CCN(CC4COc5ccncc5O4)CC3)c2c1` (stereo not drawn) [Compound 5], the IC50 at human 5HT transporter was 126 nM; in assay [1] it was 79.4 nM; in assay [2] it was 6.31 nM; at Human 5HT1A receptor, 39.8 nM.

For the molecule `Fc1ccc2[nH]cc(CCCNCC3COc4ccncc4O3)c2c1` (stereo not drawn) [Compound 6], the IC50 is 316 nM at human 5HT transporter, 200 nM in assay [1], 31.6 nM in assay [2] and 6.31 nM on Human 5HT1A receptor.

In the case of `Fc1ccc2[nH]cc(CCCNCC3Oc4cccnc4O3)c2c1` (stereo not drawn) [Compound 9], the IC50 at human 5HT transporter was 501 nM; in assay [1], more than 1000 nM; in assay [2] it was 251 nM; on Human 5HT1A receptor it was 31.6 nM.

In the case of `Fc1ccc2[nH]cc(CCCNCC3COc4cccnc4O3)c2c1` (stereo not drawn) [Compound 11], the IC50 at human 5HT transporter was 316 nM; in assay [1], 158 nM; in assay [2], 398 nM; at Human 5HT1A receptor, 1.26 nM.

`Fc1cccc2[nH]cc(C3=CCN(CC4COc5ccncc5O4)CC3)c12` (stereo not drawn) [Compound 12]: the IC50 at human 5HT transporter is 100 nM; in assay [2], 158 nM.

Turning to `Brc1ccc2[nH]cc(C3=CCN(CC4COc5ccncc5O4)CC3)c2c1` (stereo not drawn) [Compound 13], the IC50 was 100 nM on human 5HT transporter and 158 nM in assay [1].

For `Fc1cccc2c(C3=CCN(CC4COc5ccncc5O4)CC3)c[nH]c12` (stereo not drawn) [Compound 17], the IC50 is 50.1 nM on human 5HT transporter and 126 nM in assay [1].

Regarding `Clc1ccc2[nH]cc(C3CCN(CC4COc5ccncc5O4)CC3)c2c1` (stereo not drawn) [Compound 18], the IC50 at human 5HT transporter was 200 nM; in assay [1], 31.6 nM.

Take `Oc1ccc2[nH]cc(C3CCN(CC4COc5ccncc5O4)CC3)c2c1` (stereo not drawn) [Compound 19]: the IC50 on human 5HT transporter was 316 nM; in assay [1], 63.1 nM.

On to `Fc1ccc2c(C3CCN(CC4COc5ccncc5O4)CC3)c[nH]c2c1` (stereo not drawn) [Compound 23], for which the IC50 on human 5HT transporter was 251 nM; in assay [1], 25.1 nM.

Consider `Fc1cccc2c(C3CCN(CC4COc5ccncc5O4)CC3)c[nH]c12` (stereo not drawn) [Compound 24], for which the IC50 on human 5HT transporter was 316 nM; in assay [1] it was 25.1 nM.

Consider `Fc1ccc2[nH]cc(CC3CCN(CC4COc5ccncc5O4)CC3)c2c1` (stereo not drawn) [Compound 25], for which the values for the IC50 (at human 5HT transporter; in assay [1]) were 63.1 nM and 794 nM, respectively.

In the case of `Fc1ccc2[nH]cc(C3=CCN(CC4COc5cccnc5O4)CC3)c2c1` (stereo not drawn) [I, reference compound], the IC50 on human 5HT transporter is 200 nM; in assay [1], 251 nM; in assay [2] it was 501 nM; at Human 5HT1A receptor, 126 nM.
